Experimental findings from patent publication US20250059188A1, “ARYLSULPHONAMIDE COMPOUNDS” (Anaxis Pharma Pty Ltd, priority 2021, published 2025) are described below.

In test [1] the test system is Immortalised Mouse Dermal Fibroblasts (MDFs). The experiment in a line: Inhibition of TSI induced necroptosis in mouse dermal fibroblasts (CellTitre-Glo). The note with it: Mus musculus, Fibroblast, 3 h, MDF cells, TSI cocktail (TNF, Smac mimetic, IDN-6556), read-out: Inhibition of TSI-induced necroptosis (IC50 cell-based assay) in MDF. The method, boiled down: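 Immortalised MDFs (2200 cells/well, DMEM + 7.4% FBS) pretreated 30 min with compound (36 μM top, 1:3, 10 points, 0.3% DMSO), then 3 h with TNF 100 ng/ml, Smac mimetic 500 nM and IDN-6556 10 μM at 37 °C. Viability by CellTiter-Glo luminescence; IC50 from 4-parameter logistic fit.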

The next test has as its target human MLKL (full length) (Homo sapiens (Human), UniProt Q8NB16). The experiment in a line: KINOMEscan binding assay, human MLKL (full length). The note with it: equilibrium dissociation constant. In outline: (§1)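 Active-site competition binding: DNA-tagged kinase (T7 phage fusion from BL21-derived E. coli lysate, or HEK-293-expressed) captured on immobilized-ligand beads, with bound kinase in the eluate quantified by qPCR. Compounds ran as 11-point 3-fold dilutions, 1% DMSO, top 30,000 nM for most. Kd came from a Hill fit (slope −1).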

A further test has as its target human RIPK3 (Homo sapiens (Human), UniProt Q9Y572). The experiment in a line: KINOMEscan binding assay, human RIPK3. The note with it: equilibrium dissociation constant. The method, boiled down: as §1
The next test deals with human RIPK1 (Homo sapiens (Human), UniProt Q13546). The experiment in a line: KINOMEscan binding assay, human RIPK1. The following applies: equilibrium dissociation constant. In outline:
as §1

Sequence of human RIPK1 (Q13546 whole entry): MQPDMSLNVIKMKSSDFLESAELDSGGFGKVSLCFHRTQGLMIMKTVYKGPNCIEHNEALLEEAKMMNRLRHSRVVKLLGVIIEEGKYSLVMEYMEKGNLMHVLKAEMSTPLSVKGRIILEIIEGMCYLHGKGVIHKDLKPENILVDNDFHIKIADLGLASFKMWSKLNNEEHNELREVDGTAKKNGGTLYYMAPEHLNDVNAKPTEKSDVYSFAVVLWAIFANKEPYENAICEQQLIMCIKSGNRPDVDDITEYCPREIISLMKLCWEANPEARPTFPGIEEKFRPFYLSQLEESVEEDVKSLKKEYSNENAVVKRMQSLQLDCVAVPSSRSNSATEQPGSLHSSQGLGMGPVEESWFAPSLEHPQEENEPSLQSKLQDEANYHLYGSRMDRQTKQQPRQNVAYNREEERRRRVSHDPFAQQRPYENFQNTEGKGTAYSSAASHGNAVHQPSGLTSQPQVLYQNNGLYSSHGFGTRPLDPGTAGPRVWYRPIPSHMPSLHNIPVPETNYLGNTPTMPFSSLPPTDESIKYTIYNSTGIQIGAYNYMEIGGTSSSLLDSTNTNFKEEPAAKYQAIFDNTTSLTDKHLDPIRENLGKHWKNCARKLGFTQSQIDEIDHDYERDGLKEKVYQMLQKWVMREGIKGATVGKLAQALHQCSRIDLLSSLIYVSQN
Sequence of human RIPK3 (Q9Y572 whole entry): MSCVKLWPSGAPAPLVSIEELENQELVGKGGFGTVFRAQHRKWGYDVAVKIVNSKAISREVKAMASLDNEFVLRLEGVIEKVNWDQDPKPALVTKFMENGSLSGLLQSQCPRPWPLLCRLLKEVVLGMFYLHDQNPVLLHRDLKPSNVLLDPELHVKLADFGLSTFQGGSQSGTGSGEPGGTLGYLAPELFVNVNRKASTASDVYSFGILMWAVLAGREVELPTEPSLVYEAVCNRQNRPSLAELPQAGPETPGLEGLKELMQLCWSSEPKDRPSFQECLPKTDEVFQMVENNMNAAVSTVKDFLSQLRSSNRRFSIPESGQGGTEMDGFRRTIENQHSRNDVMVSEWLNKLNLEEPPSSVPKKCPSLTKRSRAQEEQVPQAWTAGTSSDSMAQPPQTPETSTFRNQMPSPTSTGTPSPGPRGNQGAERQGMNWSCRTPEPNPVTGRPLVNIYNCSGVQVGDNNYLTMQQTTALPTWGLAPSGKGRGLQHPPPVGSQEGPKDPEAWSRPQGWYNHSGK
Sequence of human MLKL (full length) (Q8NB16 whole entry, the tested form may be a part): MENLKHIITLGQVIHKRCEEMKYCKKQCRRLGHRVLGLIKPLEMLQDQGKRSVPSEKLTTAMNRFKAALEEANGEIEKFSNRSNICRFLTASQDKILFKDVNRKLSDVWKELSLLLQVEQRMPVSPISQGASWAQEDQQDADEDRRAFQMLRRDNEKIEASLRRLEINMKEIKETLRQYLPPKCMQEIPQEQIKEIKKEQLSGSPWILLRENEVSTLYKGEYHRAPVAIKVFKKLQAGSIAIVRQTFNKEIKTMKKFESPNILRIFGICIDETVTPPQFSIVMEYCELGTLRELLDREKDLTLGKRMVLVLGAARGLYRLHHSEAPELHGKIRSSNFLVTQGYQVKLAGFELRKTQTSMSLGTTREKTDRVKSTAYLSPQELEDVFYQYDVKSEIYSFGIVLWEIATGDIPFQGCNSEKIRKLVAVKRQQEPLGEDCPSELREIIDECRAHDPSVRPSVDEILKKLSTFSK

In general, IC50 refers to the concentration at which inhibition is half-maximal. As a reminder, the Kd is the concentration at which binding is half-saturated. For the compound `C[C@H](Oc1cc(-c2nn(C)c3c(-c4cnn(C5CC6(C5)CN(C)C6)c4)cnc(N)c23)ccc1NS(=O)(=O)C(F)F)c1ccc(F)cc1` [Compound 99, (S)-N-(4-(4-amino-1-methyl-7-(1-(2-methyl-2-azaspiro[3.3]heptan-6-yl)-1H-pyrazol-4-yl)-1H-pyrazolo[4,3-c]pyridin-3-yl)-2-(1-(4-fluorophenyl)ethoxy)phenyl)-1,1-difluoromethanesulfonamide], the IC50 in test [1] is 1 to 10 µM. The Kd on human MLKL (full length) is less than 0.001 µM; at human RIPK3 it was more than 10 µM; on human RIPK1 it was more than 10 µM.
Turning to `[2H]C([2H])([2H])N1CCC(n2cc(-c3cnc(N)c4c(-c5ccc(NS(=O)(=O)C(F)F)c(O[C@@H](C)c6ccc(F)cc6)c5)nn(C)c34)cn2)CC1` [Compound 103], the IC50 in test [1] fell in the range of 1 to 10 µM. The Kd was less than 0.001 µM at human MLKL (full length), more than 10 µM on human RIPK3 and more than 10 µM on human RIPK1.
For `C[C@H](Oc1cc(-c2nn(C)c3c(-c4cnn(C5CCC(C)(C)N(C)C5)c4)cnc(N)c23)ccc1NS(=O)(=O)C(F)F)c1ccc(F)cc1` (stereo partly shown) [Compound 104, N-(4-{4-amino-1-methyl-7-[1-(1,6,6-trimethylpiperidin-3-yl)-1H-pyrazol-4-yl]-1H-pyrazolo[4,3-c]pyridin-3-yl}-2-[(1 S)-1-(4-fluorophenyl)ethoxy]phenyl)-1,1-difluoromethanesulfonamide], in test [1], the IC50 lay in the range of 0.1 to 1 µM. In addition, the Kd at human MLKL (full length) was less than 0.001 µM; at human RIPK3, more than 10 µM; on human RIPK1 it was more than 10 µM.
On to `CC(=O)N1CCC(n2cc(-c3cnc(N)c4c(-c5ccc(NS(=O)(=O)C(F)F)c(O[C@@H](C)c6ccc(F)cc6)c5)nn(C)c34)cn2)CC1` [Compound 109, (S)—N-(4-(7-(1-(1-acetylpiperidin-4-yl)-1H-pyrazol-4-yl)-4-amino-1-methyl-1H-pyrazolo[4,3-c]pyridin-3-yl)-2-(1-(4-fluorophenyl)ethoxy)phenyl)-1,1-difluoromethanesulfonamide], for which the IC50 in test [1] is 0.1 to 1 µM. The Kd was less than 0.001 µM on human MLKL (full length), more than 10 µM at human RIPK3 and more than 10 µM at human RIPK1.
Consider `C[C@H](Oc1cc(-c2nn(C)c3c(-c4cnn(CC(F)(F)F)c4)cnc(N)c23)ccc1NS(=O)(=O)C(F)F)c1ccc(F)cc1` [Compound 116, (S)-N-(4-(4-amino-1-methyl-7-(1-(2,2,2-trifluoroethyl)-1H-pyrazol-4-yl)-1H-pyrazolo[4,3-c]pyridin-3-yl)-2-(1-(4-fluorophenyl)ethoxy)phenyl)-1,1-difluoromethanesulfonamide], for which the IC50 in test [1] fell in the range of 1 to 10 µM. For the same compound, the Kd was 0.001 to 0.1 µM at human MLKL (full length), more than 10 µM on human RIPK3 and more than 10 µM on human RIPK1.
On to `C[C@H](Oc1cc(-c2nn(C)c3c(-c4cnn(C5CCC(F)(F)C5)c4)cnc(N)c23)ccc1NS(=O)(=O)C(F)F)c1ccc(F)cc1` (stereo partly drawn) [Compound 120, N-(4-{4-amino-7-[1-(3,3-difluorocyclopentyl)-1H-pyrazol-4-yl]-1-methyl-1H-pyrazolo[4,3-c]pyridin-3-yl}-2-[(1S)-1-(4-fluorophenyl)ethoxy]phenyl)-1,1-difluoromethanesulfonamide], for which, in test [1], the IC50 was in the range of 1 to 10 µM. Also, the Kd was 0.001 to 0.1 µM on human MLKL (full length), more than 10 µM on human RIPK3 and more than 10 µM on human RIPK1.
In the case of `C[C@@H](Oc1cc(-c2nn(C)c3c(-c4cnn(C5CCOCC5)c4)cnc(N)c23)ccc1NS(=O)(=O)C(F)F)c1ccc(F)cc1` [Compound 121, (R)-N-(4-(4-amino-1-methyl-7-(1-(tetrahydro-2H-pyran-4-yl)-1H-pyrazol-4-yl)-1H-pyrazolo[4,3-c]pyridin-3-yl)-2-(1-(4-fluorophenyl)ethoxy)phenyl)-1,1-difluoromethanesulfonamide], the IC50 in test [1] fell in the range of 1 to 10 µM. In addition, the Kd at human MLKL (full length) was less than 0.001 µM; on human RIPK3, more than 10 µM; at human RIPK1, more than 10 µM.
Consider `C[C@H](Oc1cc(-c2nn(C)c3c(-c4cnn(C5CCOCC5)c4)cnc(N)c23)ccc1NS(=O)(=O)C(F)F)c1cccc(Cl)c1` [Compound 122, (S)-N-(4-(4-amino-1-methyl-7-(1-(tetrahydro-2H-pyran-4-yl)-1H-pyrazol-4-yl)-1H-pyrazolo[4,3-c]pyridin-3-yl)-2-(1-(3-chlorophenyl)ethoxy)phenyl)-1,1-difluoromethanesulfonamide], for which the IC50 in test [1] is 1 to 10 µM. For the same compound, the Kd is less than 0.001 µM on human MLKL (full length), more than 10 µM on human RIPK3 and more than 10 µM at human RIPK1.
With `C[C@H](Oc1cc(-c2nn(C)c3c(-c4cnn(CCC(F)(F)F)c4)cnc(N)c23)ccc1NS(=O)(=O)C(F)F)c1ccc(F)cc1` [Compound 131, (S)-N-(4-(4-amino-1-methyl-7-(1-(3,3,3-trifluoropropyl)-1H-pyrazol-4-yl)-1H-pyrazolo[4,3-c]pyridin-3-yl)-2-(1-(4-fluorophenyl)ethoxy)phenyl)-1,1-difluoromethanesulfonamide], in test [1], the IC50 fell in the range of 1 to 10 µM. In addition, the Kd is 0.001 to 0.1 µM at human MLKL (full length), more than 10 µM at human RIPK3 and more than 10 µM at human RIPK1.
On to `Cn1nc(-c2ccc(NS(=O)(=O)C(F)F)c(OCc3ccc(Cl)c(F)c3)c2)c2c(N)ncc(-c3cnn(C4CCOCC4)c3)c21` [Compound 132, N-(4-(4-amino-1-methyl-7-(1-(tetrahydro-2H-pyran-4-yl)-1H-pyrazol-4-yl)-1H-pyrazolo[4,3-c]pyridin-3-yl)-2-((4-chloro-3-fluorobenzyl)oxy)phenyl)-1,1-difluoromethanesulfonamide], for which, in test [1], the IC50 was 1 to 10 µM. The Kd on human MLKL (full length) is less than 0.001 µM; at human RIPK3 it was more than 10 µM; on human RIPK1, more than 10 µM.
With `COCC(Oc1cc(-c2nn(C)c3c(-c4cnn(C5CCN(C)CC5)c4)cnc(N)c23)ccc1NS(=O)(=O)C(F)F)c1ccc(F)cc1` (stereo not shown) [Compound 139, N-(4-(4-amino-1-methyl-7-(1-(1-methylpiperidin-4-yl)-1H-pyrazol-4-yl)-1H-pyrazolo[4,3-c]pyridin-3-yl)-2-(1-(4-fluorophenyl)-2-methoxyethoxy)phenyl)-1,1-difluoromethanesulfonamide], the IC50 in test [1] is 1 to 10 µM. The Kd at human MLKL (full length) was 0.001 to 0.1 µM; at human RIPK3, more than 10 µM; on human RIPK1, more than 10 µM.
With `CC(n1cc(-c2cnc(N)c3c(-c4ccc(NS(=O)(=O)C(F)F)c(O[C@@H](C)c5ccc(F)cc5)c4)nn(C)c23)cn1)C(F)(F)F` (stereo partly drawn) [Compound 142, N-(4-(4-amino-1-methyl-7-(1-(1,1,1-trifluoropropan-2-yl)-1H-pyrazol-4-yl)-1H-pyrazolo[4,3-c]pyridin-3-yl)-2-((S)-1-(4-fluorophenyl)ethoxy)phenyl)-1,1-difluoromethanesulfonamide], the IC50 in test [1] was 1 to 10 µM. Moreover, the results for the Kd on human MLKL (full length), on human RIPK3 and on human RIPK1 were less than 0.001 µM, more than 10 µM and more than 10 µM, respectively.
With `C[C@H](Oc1cc(-c2nn(C)c3c(-c4cnn(C5CCN(C)C6(CC6)C5)c4)cnc(N)c23)ccc1NS(=O)(=O)C(F)F)c1ccc(F)cc1` (stereo partly drawn) [Compound 145, N-(4-(4-amino-1-methyl-7-(1-(4-methyl-4-azaspiro[2.5]octan-7-yl)-1H-pyrazol-4-yl)-1H-pyrazolo[4,3-c]pyridin-3-yl)-2-((S)-1-(4-fluorophenyl)ethoxy)phenyl)-1,1-difluoromethanesulfonamide], the IC50 in test [1] was less than 0.1 µM. Moreover, the figures for the dissociation constant (Kd) at human MLKL (full length), on human RIPK3 and at human RIPK1 were 0.001 to 0.1 µM, more than 10 µM and more than 10 µM, respectively.
